The values that follow come from patent US12673945B2, “3-((8-((1H-pyrazol-4-yl)amino)imidazo[1,2-a]pyridin-3-yl)ethinyl)-n-phenylbenzamide derivative, method for preparing same, and pharmaceutical composition containing same as active ingredient for prevention or treatment of cancer” (DAEGU-GYEONGBUK MEDICAL INNOVATION FOUNDATION, priority 2020, dated 2026).

Common to all, as to type: cell-based
The subject of assay [1] is TCCS cells. Description: human CML cell proliferation inhibition. Particulars: 72 hours, Cell Counting Kit-8. In short, it runs like this:
(§1)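 Growth inhibition over 72 h at 37 °C in Bcr-Abl (TCCS, KOPM28) or T315I-Bcr-Abl (T315I-TCCS, T315I-KOPM28) human CML cells, 1×10^4 cells/well. Nine 5-fold dilutions gave final 0 to 10 μM, with DMSO as control. GI50 was derived from CCK-8 A450 as percent of vehicle.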

The subject of assay [2] is T315I-TCCS cells. In words: human CML cell proliferation inhibition. Particulars: 72 hours, Cell Counting Kit-8. The essentials: as §1
Assay [3] has as its system T315I-KOPM28 cells. In words: human CML cell proliferation inhibition. Particulars: 72 hours, Cell Counting Kit-8. In short, it runs like this:
as §1

The subject of assay [4] is KOPM28 cells. Description: human CML cell proliferation inhibition. Particulars: 72 hours, Cell Counting Kit-8. The essentials: as §1
The test system of assay [5] is Parental (Ba/F3). Description: Ba/F3 cell proliferation inhibition. Particulars: BaF3; 72 hours, Cell Counting Kit-8. The essentials:
(§2)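 Parental and T315I-Bcr-Abl Ba/F3 cells, 1×10^4 per well, exposed 72 h at 37 °C to nine 3-fold dilutions, final 0 to 10 μM. Viability by CCK-8 after 2 h, absorbance 450 nm; GI50 fitted from percent of vehicle-treated cells.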

In assay [6] the test system is T315I-Bcr-Abl (Ba/F3). In words: Ba/F3 cell proliferation inhibition. Particulars: BaF3; 72 hours, Cell Counting Kit-8. In short, it runs like this:
as §2

For `Cc1cc(F)c(C(=O)Nc2cc(-c3ccncc3)cc(C(C)(C)C#N)c2)cc1C#Cc1cnc2c(Nc3cn[nH]c3)cccn12` [Example 78, 5-((8-((1H-pyrazol-4-yl)amino)imidazo[1,2-a]pyridin-3-yl)ethynyl)-N-(3-(2-cyanopropan-2-yl)-5-(pyridin-4-yl)phenyl)-2-fluoro-4-methylbenzamide], the GI50 in assay [1] was < 10 nM; in assay [2], > 100 nM; in assay [3], > 100 nM; in assay [4], 100 nM; in assay [5] it was > 5000 nM; in assay [6], 50 to 500 nM.

In the case of `Cc1cc(F)c(C(=O)Nc2cc(CN3CCN(S(C)(=O)=O)CC3)cc(C(C)(C)C#N)c2)cc1C#Cc1cnc2c(Nc3cnn(C)c3)cccn12` [Example 34, N-(3-(2-cyanopropan-2-yl)-5-((4-(methylsulfonyl)piperazin-1-yl)methyl)phenyl)-2-fluoro-4-methyl-5-((8-((1-methyl-1H-pyrazol-4-yl)amino)imidazo[1,2-a]pyridin-3-yl)ethynyl)benzamide], the GI50 in assay [1] is < 10 nM; in assay [2], 100 nM; in assay [3], > 100 nM; in assay [4], < 10 nM; in assay [5], > 5000 nM; in assay [6], 50 to 500 nM.

With `Cc1cc(F)c(C(=O)Nc2cc(-c3cccnc3)cc(C(C)(C)C#N)c2)cc1C#Cc1cnc2c(Nc3cnn(C)c3)cccn12` [Example 18, N-(3-(2-cyanopropan-2-yl)-5-(pyridin-3-yl)phenyl)-2-fluoro-4-methyl-5-((8-((1-methyl-1H-pyrazol-4-yl)amino)imidazo[1,2-a]pyridin-3-yl)ethynyl)benzamide], the GI50 in assay [1] is < 10 nM; in assay [2], 100 nM; in assay [3], 100 nM; in assay [4], < 10 nM; in assay [5], > 5000 nM; in assay [6], 50 to 500 nM.

As to `Cc1cc(F)c(C(=O)Nc2ccc(CN3CCC(N(C)C)C3)c(C(F)(F)F)c2)cc1C#Cc1cnc2c(Nc3cnn(C)c3)cccn12` (stereo not drawn) [Example 59, N-(4-((3-(dimethylamino)pyrrolidine-1-yl)methyl)-3-(trifluoromethyl)phenyl)-2-fluoro-4-methyl-5-((8-((1-methyl-1H-pyrazol-4-yl)amino)imidazo[1,2-a]pyridin-3-yl)ethynyl)benzamide], the GI50 is < 10 nM in assay [1]; 100 nM in assay [2]; > 100 nM in assay [3]; < 10 nM in assay [4]; > 5000 nM in assay [5]; 50 to 500 nM in assay [6].

Take `Cc1cc(F)c(C(=O)Nc2cc(CN3CCN(S(C)(=O)=O)CC3)cc(C(F)(F)F)c2)cc1C#Cc1cnc2c(Nc3cnn(C)c3)cccn12` [Example 70, 2-fluoro-4-methyl-5-((8-((1-methyl-1H-pyrazol-4-yl)amino)imidazo[1,2-a]pyridin-3-yl)ethynyl)-N-(3-((4-(methylsulfonyl)piperazin-1-yl)methyl)-5-(trifluoromethyl)phenyl)benzamide]: the concentration for 50% growth inhibition (GI50) is < 10 nM in assay [1]; > 100 nM in assay [2]; > 100 nM in assay [3]; < 10 nM in assay [4]; > 5000 nM in assay [5]; 50 to 500 nM in assay [6].

Regarding `Cc1cc(F)c(C(=O)Nc2cc(Oc3ccncc3)cc(C(F)(F)F)c2)cc1C#Cc1cnc2c(Nc3cnn(C)c3)cccn12` [Example 7, 2-fluoro-4-methyl-5-((8-((1-methyl-1H-pyrazol-4-yl)amino)imidazo[1,2-a]pyridin-3-yl)ethynyl)-N-(3-(pyridin-4-yloxy)-5-(trifluoromethyl)phenyl)benzamide], the GI50 in assay [1] is < 10 nM; in assay [2], < 10 nM; in assay [3], < 10 nM; in assay [4] it was < 10 nM; in assay [5] it was > 5000 nM; in assay [6], < 50 nM.

Take `Cc1cc(F)c(C(=O)Nc2ccc(Oc3ccncc3)c(C(F)(F)F)c2)cc1C#Cc1cnc2c(Nc3cnn(C)c3)cccn12` [Example 65, 2-fluoro-4-methyl-5-((8-((1-methyl-1H-pyrazol-4-yl)amino)imidazo[1,2-a]pyridin-3-yl)ethynyl)-N-(4-(pyridin-4-yloxy)-3-(trifluoromethyl)phenyl)benzamide]: the concentration for 50% growth inhibition (GI50) in assay [1] was < 10 nM; in assay [2], 100 nM; in assay [3], 100 nM; in assay [4], < 10 nM; in assay [5], > 5000 nM; in assay [6] it was 50 to 500 nM.

Take `Cc1cc(F)c(C(=O)Nc2ccc(CN3CCN(CCO)CC3)c(C(F)(F)F)c2)cc1C#Cc1cnc2c(Nc3cnn(C)c3)cccn12` [Example 56, 2-fluoro-N-(4-((4-(2-hydroxyethyl)piperazin-1-yl)methyl)-3-(trifluoromethyl)phenyl)-4-methyl-5-((8-((1-methyl-1H-pyrazol-4-yl)amino)imidazo[1,2-a]pyridin-3-yl)ethynyl)benzamide]: the GI50 in assay [1] was < 10 nM; in assay [2], < 10 nM; in assay [3], < 10 nM; in assay [4], < 10 nM; in assay [5], 500 to 5000 nM; in assay [6] it was < 50 nM.

Regarding `Cc1cn(-c2cc(NC(=O)c3cc(C#Cc4cnc5c(Nc6cnn(C)c6)cccn45)c(C)cc3Cl)cc(C(C)(C)C#N)c2)cn1` [Example 13, 2-chloro-N-(3-(2-cyanopropan-2-yl)-5-(4-methyl-1H-imidazol-1-yl)phenyl)-4-methyl-5-((8-((1-methyl-1H-pyrazol-4-yl)amino)imidazo[1,2-a]pyridin-3-yl)ethynyl)benzamide], the GI50 was < 10 nM in assay [1]; < 10 nM in assay [2]; 100 nM in assay [3]; < 10 nM in assay [4]; > 5000 nM in assay [5]; < 50 nM in assay [6].

On to `Cc1cc(F)c(C(=O)Nc2cc(Oc3ccncc3)cc(C(C)(C)C#N)c2)cc1C#Cc1cnc2c(Nc3cnn(C)c3)cccn12` [Example 26, N-(3-(2-cyanopropan-2-yl)-5-(pyridin-4-yloxy)phenyl)-2-fluoro-4-methyl-5-((8-((1-methyl-1H-pyrazol-4-yl)amino)imidazo[1,2-a]pyridin-3-yl)ethynyl)benzamide], for which the GI50 was < 10 nM in assay [1]; < 10 nM in assay [2]; 100 nM in assay [3]; < 10 nM in assay [4]; > 5000 nM in assay [5]; < 50 nM in assay [6].

For `Cc1cc(F)c(C(=O)Nc2ccc(CN3CCN(C)C(=O)C3)c(C(F)(F)F)c2)cc1C#Cc1cnc2c(Nc3cnn(C)c3)cccn12` [Example 58, 2-fluoro-4-methyl-5-((8-((1-methyl-1H-pyrazol-4-yl)amino)imidazo[1,2-a]pyridin-3-yl)ethynyl)-N-(4-((4-methyl-3-oxopiperazin-1-yl)methyl)-3-(trifluoromethyl)phenyl)benzamide], the GI50 was < 10 nM in assay [1]; 100 nM in assay [2]; 100 nM in assay [3]; < 10 nM in assay [4]; > 5000 nM in assay [5]; < 50 nM in assay [6].

Turning to `Cc1cc(F)c(C(=O)Nc2cc(N3CCN(C)CC3)cc(C(F)(F)F)c2)cc1C#Cc1cnc2c(Nc3cnn(C)c3)cccn12` [Example 47, 2-fluoro-4-methyl-5-((8-((1-methyl-1H-pyrazol-4-yl)amino)imidazo[1,2-a]pyridin-3-yl)ethynyl)-N-(3-(4-methylpiperazin-1-yl)-5-(trifluoromethyl)phenyl)benzamide], the GI50 in assay [1] was < 10 nM; in assay [2], 100 nM; in assay [3] it was 100 nM; in assay [4], < 10 nM; in assay [5] it was 500 to 5000 nM; in assay [6], 50 to 500 nM.

On to `Cc1cc(F)c(C(=O)Nc2cc(CN3CCN(C)C(=O)C3)cc(C(F)(F)F)c2)cc1C#Cc1cnc2c(Nc3cnn(C)c3)cccn12` [Example 71, 2-fluoro-4-methyl-5-((8-((1-methyl-1H-pyrazol-4-yl)amino)imidazo[1,2-a]pyridin-3-yl)ethynyl)-N-(3-((4-methyl-3-oxopiperazin-1-yl)methyl)-5-(trifluoromethyl)phenyl)benzamide], for which the GI50 is < 10 nM in assay [1]; 100 nM in assay [2]; > 100 nM in assay [3]; < 10 nM in assay [4]; > 5000 nM in assay [5]; 50 to 500 nM in assay [6].

`Cc1cc(F)c(C(=O)Nc2cc(-c3cnn(C)c3)cc(C(C)(C)C#N)c2)cc1C#Cc1cnc2c(Nc3cn[nH]c3)cccn12` [Example 77, 5-((8-((1H-pyrazol-4-yl)amino)imidazo[1,2-a]pyridin-3-yl)ethynyl)-N-(3-(2-cyanopropan-2-yl)-5-(1-methyl-1H-pyrazol-4-yl)phenyl)-2-fluoro-4-methylbenzamide]: the GI50 in assay [1] was < 10 nM; in assay [2], 100 nM; in assay [3], > 100 nM; in assay [4] it was < 10 nM; in assay [5], > 5000 nM; in assay [6], 50 to 500 nM.

Take `Cc1cc(F)c(C(=O)Nc2ccc(CN3CCN(CCO)CC3)c(C(C)(C)C#N)c2)cc1C#Cc1cnc2c(Nc3cn[nH]c3)cccn12` [Example 92, 5-((8-((1H-pyrazol-4-yl)amino)imidazo[1,2-a]pyridin-3-yl)ethynyl)-N-(3-(2-cyanopropan-2-yl)-4-((4-(2-hydroxyethyl)piperazin-1-yl)methyl)phenyl)-2-fluoro-4-methylbenzamide]: the GI50 in assay [1] is < 10 nM; in assay [2], 100 nM; in assay [3], 100 nM; in assay [4] it was < 10 nM; in assay [5], 500 to 5000 nM; in assay [6], < 50 nM.
